# Columns and labels:
# [1] = tested on: primary rat calvaria osteoblasts; assay: Mineralization by 45Ca incorporation in cultured rat calvaria osteoblasts; format: cell-based; conditions: fetal rat calvaria cells
# Description: In general, to show stimulation of mineralization in cultured cells by PHEX inhibitors, cells of osteoblast lineage are incubated in conditions that favors the mineralization process in the absence and the presence of the PHEX inhibiting compound. This cellular model is used to study osteoblasts proliferation and differentiation, and to follow the mineralization process.
# Mineralization can be monitored by standard techniques such as von Kossa staining or ^45Ca incorporation in the extracellular matrix.
# For example, cells were enzymatically isolated from the calvaria of 21-day old Wistar rat fetuses by sequential digestion with collagenase as described previously (Bellows et al., 1986). Cells obtained from the last four of the five digestion steps were plated in T-75 flasks in α-MEM containing 15% FBS (Cansera) and antibiotics comprising 100 μg/ml penicillin G (Sigma-Aldrich), 50 μg/ml gentamycin (Life Technologies), and 0.3 μg/ml fungizone (Life Technologies). […]
# At day 18, 21 and 25 of rat calvaria osteoblasts culture, mineralization was determined by ^45Ca incorporation assay as described previously (Ecarot et Desbarats, 1999). […] Cell layers were solubilized in 12.5% trichloroacetic acid and aliquots counted for radioactivity.
# rat mandibular defect = assay: Bone lesion repair in rat mandibular defect model (hydroxyapatite particles soaked in inhibitor); format: in vivo; conditions: for bone formation (scanning electron microscopy, % of total defect area): 14 days of healing
# Description: Osteogenic properties of PHEX inhibitors can be shown in a model of rat mandibular defect. For example, a 2 mm size bone defect was created in the rat mandible as described previously (Vu et al., 1999). Rats were anesthetized and the vestibular surface of the right mandibular ramus was exposed as follow: an incision was made through the skin along an imaginary line forming a 90° angle with the lower lip to access the muscle layer. A scalpel blade was used to make an incision parallel to the fibers of the deep portion of masseter muscle, about 2 mm posterior to the facial artery (largest branch of the external carotid), in the portion where it gives rise to the labial mandibular artery. The periosteum was elevated and the underlying bony surface exposed. A 2 mm×2 mm bony window was drilled between the second and third molar using a slow-speed dental drill with a carbide round burr size 1.4 mm (Brasseler) and a drill size 2 mm (Straumann Canada Ltd). Saline irrigation was used during the drilling. Porous hydroxyapatite particles (Fin-Ceramica Faenza s.r.l.) with pore size ranged from 450 to 600 μm were accommodated in the bony hole and pushed into it. The particles had been incubated previously in solutions of varying concentrations of PHEX inhibitor or vehicle for 16 to 24 hours at 4° C. Once the bony window was filled the lesion was covered with a membrane of hydroxyapatite (Fin-Ceramica Faenza s.r.l.) which was fixed to the surrounding bone surface with topical tissue adhesive. The muscle fibers were carefully repositioned on the mandible and sutured with absorbable surgical sutures (Chromic Gut, Ethicon Inc.). The skin was sutured for total coverage with silk sutures (Sherwood Davis & Geck, Wayne). After 7 days of treatment the bone lesion was exposed and varying concentrations of PHEX inhibitor or vehicle was reapplied to hydroxyapatite particles. Treatment was continued for another 7 days.
# After the 14 day healing period, bone formation at the defect was evaluated by scanning electron microscopy and microcomputed tomography. Animals were sacrificed by intravascular perfusion through the left ventricle with 4% paraformaldehyde and 0.1% glutaraldehyde solution. Treated hemimandibles were taken, immersed in the fixative overnight at 4° C. then washed and kept in 0.1 M cacodylate buffer pH 8.0 until analysis. Specimens for quantification by scanning electron microscopy were dehydrated in a graded alcohol series and embedded in LR White resin (Marivac) for further sectioning along their longitudinal axis. […] Amount of bone tissue present in the sections was quantified by manual tracing using the MOP-3 system (Carl Zeiss) and was expressed as a percentage of the total defect area.
smiles,measurement,setting,value
"O=C(O)CC(CC(=O)NO)C(=O)NCCc1ccc(-c2ccccc2)cc1 (stereo not drawn) [Example 126, 3-(2-Biphenyl-4-yl-ethylcarbamoyl)4-hydroxycarbamoyl-butyric acid]",45Ca incorporation by the cells (mineralization),[1]; 1×10^−5 M (high dose),reduced significantly
same,45Ca incorporation by the cells (mineralization),"[1]; lower concentrations, low dose (10^−6 M)",significantly stimulated
same,"bone formation (scanning electron microscopy, % of total defect area)","rat mandibular defect; 1×10^−5 M on hydroxyapatite particles, compared to saline",reduced significantly
same,bone formation (microcomputed tomography 3D reconstruction),"rat mandibular defect; high inhibitor dose, one representative specimen per group",reduced bone formation
same,bone around particles (microcomputed tomography 3D reconstruction),"rat mandibular defect; low dose of inhibitor vs saline, one representative specimen per group",more bone
same,"bone formation (scanning electron microscopy, % of total defect area)",rat mandibular defect; lower concentrations on hydroxyapatite particles,significantly stimulated

# Source: patent publication US20060135480A1, “Derivatives of succinic and glutaric acids and analogs thereof useful as inhibitors of phex” (Enobia Pharma, priority 2002, published 2006)
